Legend:
Test in all cases: relative viability (nuclei count vs DMSO), 5 days (fraction); higher = more cells survive
[1] = system: NCI-H1975
Outline: (§1)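 Relative viability was taken as the ratio of nuclei in treated wells to nuclei in vehicle wells. Lung cancer cell lines in 1536-well plates received compounds by pin tool one day after seeding, either one drug alone or a fixed anchor-drug dose plus five library-drug doses (not always all listed) in √10 steps. Nuclei were counted on 4× images after 5 days of treatment, and values are medians of duplicate plates.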

[2] = system: EPLC-272H
Outline: as §1

[3] = system: NCI-H441
Outline: as §1

[4] = system: NCI-H2342
Outline: as §1

[5] = system: NCI-H2228
Outline: as §1

[6] = system: COR-L 105
Outline: as §1

[7] = system: NCI-H1355
Outline: as §1

[8] = system: NCI-H2085
Outline: as §1

[9] = system: H3255
Outline: as §1

[10] = system: HCC-366
Outline: as §1

[11] = system: NCI-H2087
Outline: as §1

[12] = system: NCI-H2009
Outline: as §1

[13] = system: NCI-H1792
Outline: as §1

[14] = system: ABC-1
Outline: as §1

[15] = system: EKVX
Outline: as §1

[16] = system: ChaGo-K-1
Outline: as §1

[17] = system: NCI-H322M
Outline: as §1

[18] = system: NCI-H460
Outline: as §1

[19] = system: HCC-827
Outline: as §1

[20] = system: CAL-12T
Outline: as §1

[21] = system: NCI-H1993
Outline: as §1

[22] = system: SK-MES-1
Outline: as §1

CCNC(=O)c1noc(-c2cc(C(C)C)c(O)cc2O)c1-c1ccc(CN2CCOCC2)cc1 [Luminespib] + N=C(N)NC(=N)NCCc1ccccc1 [Phenformin] (partner 250 µM)
relative viability ([1]; first compound 0.002 µM): 0.401
relative viability ([1]; first compound 0.006325 µM): 0.37
relative viability ([1]; first compound 0.02 µM): 0.169
relative viability ([1]; first compound 0.06325 µM): 0.118
relative viability ([1]; first compound 0.2 µM): 0.118
relative viability ([2]; first compound 0.002 µM): 0.307
relative viability ([2]; first compound 0.006325 µM): 0.291
relative viability ([2]; first compound 0.06325 µM): 0.271
relative viability ([2]; first compound 0.2 µM): 0.0832
relative viability ([3]; first compound 0.002 µM): 0.841
relative viability ([3]; first compound 0.006325 µM): 0.689
relative viability ([3]; first compound 0.02 µM): 0.732
relative viability ([3]; first compound 0.06325 µM): 0.216
relative viability ([3]; first compound 0.2 µM): 0.135
relative viability ([4]; first compound 0.002 µM): 0.549
relative viability ([4]; first compound 0.006325 µM): 0.581
relative viability ([4]; first compound 0.02 µM): 0.454
relative viability ([4]; first compound 0.06325 µM): 0.606
relative viability ([4]; first compound 0.2 µM): 0.355
relative viability ([5]; first compound 0.002 µM): 0.314
relative viability ([5]; first compound 0.006325 µM): 0.288
relative viability ([5]; first compound 0.02 µM): 0.115
relative viability ([5]; first compound 0.06325 µM): 0.102
relative viability ([5]; first compound 0.2 µM): 0.0912
relative viability ([6]; first compound 0.002 µM): 0.474
relative viability ([6]; first compound 0.006325 µM): 0.402
relative viability ([6]; first compound 0.02 µM): 0.337
relative viability ([6]; first compound 0.06325 µM): 0.154
relative viability ([6]; first compound 0.2 µM): 0.19
relative viability ([7]; first compound 0.002 µM): 0.431
relative viability ([7]; first compound 0.006325 µM): 0.456
relative viability ([7]; first compound 0.02 µM): 0.382
relative viability ([7]; first compound 0.06325 µM): 0.254
relative viability ([7]; first compound 0.2 µM): 0.17
relative viability ([8]; first compound 0.002 µM): 0.807
relative viability ([8]; first compound 0.006325 µM): 0.713
relative viability ([8]; first compound 0.02 µM): 0.408
relative viability ([8]; first compound 0.06325 µM): 0.221
relative viability ([8]; first compound 0.2 µM): 0.225
relative viability ([9]; first compound 0.002 µM): 0.328
relative viability ([9]; first compound 0.006325 µM): 0.347
relative viability ([9]; first compound 0.06325 µM): 0.319
relative viability ([9]; first compound 0.2 µM): 0.187
relative viability ([10]; first compound 0.002 µM): 0.686
relative viability ([10]; first compound 0.006325 µM): 0.59
relative viability ([10]; first compound 0.02 µM): 0.697
relative viability ([10]; first compound 0.06325 µM): 0.0486
relative viability ([10]; first compound 0.2 µM): 0.0355
relative viability ([11]; first compound 0.002 µM): 0.493
relative viability ([11]; first compound 0.006325 µM): 0.362
relative viability ([11]; first compound 0.02 µM): 0.267
relative viability ([11]; first compound 0.06325 µM): 0.136
relative viability ([11]; first compound 0.2 µM): 0.115
relative viability ([12]; first compound 0.002 µM): 0.543
relative viability ([12]; first compound 0.006325 µM): 0.44
relative viability ([12]; first compound 0.02 µM): 0.487
relative viability ([12]; first compound 0.06325 µM): 0.0851
relative viability ([12]; first compound 0.2 µM): 0.103
relative viability ([13]; first compound 0.002 µM): 0.265
relative viability ([13]; first compound 0.006325 µM): 0.263
relative viability ([13]; first compound 0.02 µM): 0.101
relative viability ([13]; first compound 0.06325 µM): 0.0593
relative viability ([13]; first compound 0.2 µM): 0.077
relative viability ([14]; first compound 0.002 µM): 0.223
relative viability ([14]; first compound 0.006325 µM): 0.272
relative viability ([14]; first compound 0.02 µM): 0.241
relative viability ([14]; first compound 0.06325 µM): 0.2
relative viability ([14]; first compound 0.2 µM): 0.233
relative viability ([15]; first compound 0.002 µM): 0.236
relative viability ([15]; first compound 0.006325 µM): 0.209
relative viability ([15]; first compound 0.06325 µM): 0.223
relative viability ([15]; first compound 0.2 µM): 0.104
relative viability ([16]; first compound 0.002 µM): 0.504
relative viability ([16]; first compound 0.006325 µM): 0.456
relative viability ([16]; first compound 0.02 µM): 0.467
relative viability ([16]; first compound 0.06325 µM): 0.303
relative viability ([16]; first compound 0.2 µM): 0.152
relative viability ([17]; first compound 0.002 µM): 0.801
relative viability ([17]; first compound 0.006325 µM): 0.729
relative viability ([17]; first compound 0.02 µM): 0.717
relative viability ([17]; first compound 0.06325 µM): 0.287
relative viability ([17]; first compound 0.2 µM): 0.278
relative viability ([18]; first compound 0.002 µM): 0.616
relative viability ([18]; first compound 0.006325 µM): 0.458
relative viability ([18]; first compound 0.02 µM): 0.0329
relative viability ([18]; first compound 0.06325 µM): 0.0168
relative viability ([18]; first compound 0.2 µM): 0.0232
relative viability ([19]; first compound 0.002 µM): 0.385
relative viability ([19]; first compound 0.006325 µM): 0.384
relative viability ([19]; first compound 0.02 µM): 0.369
relative viability ([19]; first compound 0.06325 µM): 0.281
relative viability ([19]; first compound 0.2 µM): 0.141
relative viability ([20]; first compound 0.002 µM): 0.578
relative viability ([20]; first compound 0.006325 µM): 0.512
relative viability ([20]; first compound 0.02 µM): 0.15
relative viability ([20]; first compound 0.06325 µM): 0.101
relative viability ([20]; first compound 0.2 µM): 0.0963
relative viability ([21]; first compound 0.002 µM): 0.46
relative viability ([21]; first compound 0.006325 µM): 0.474
relative viability ([21]; first compound 0.02 µM): 0.476
relative viability ([21]; first compound 0.06325 µM): 0.394
relative viability ([21]; first compound 0.2 µM): 0.36
relative viability ([22]; first compound 0.002 µM): 0.642
relative viability ([22]; first compound 0.006325 µM): 0.623
relative viability ([22]; first compound 0.02 µM): 0.702
relative viability ([22]; first compound 0.06325 µM): 0.189
relative viability ([22]; first compound 0.2 µM): 0.193

From the supplement of paper PMC10307832
